Measured values as given in patent US11147272B2, “Pyridone compounds and agricultural and horticultural fungicides comprising the same as active ingredients” (MITSUI CHEMICALS AGRO, INC., priority 2017, dated 2021).

Key:
[1] = system: Botrytis cinerea; test: Test Example B: Gray mold on tomato; details: for Test B control value class: class of control value
[2] = system: Blumeria graminis f. sp. hordei; test: Test Example D: Powdery mildew on barley; details: for Test D control value class: class of control value
[3] = system: Alternaia brassicicola; test: Test Example C: Alternaria sooty spot on cabbage; format: in vivo; details: for Test C control value class: class of control value
Excerpt: Seeds of a test plant (cabbage variety: Shikidori) were planted and cultivated until the cotyledons extended.
<Control Value> Control value=100{1−(n/3)}

[4] = system: Magnaporthe grisea; test: whole plant or invertebrate; format: in vivo; details: for Test A control value class: class of control value
[5] = system: Puccinia recondita; test: Test Example E: Brown rust on wheat; format: in vivo; details: for Test E control value class: class of control value
[6] = system: Plasmopara viticola; test: Test Example G: Downy mildew on vine; details: for Test G control value: 7 to 10 days after inoculation; for Test G control value class: Downy mildew on vine (Neomuscat), 2.5 ml/pot, assessed 7 to 10 days after inoculation
[7] = system: Phytophthora infestans; test: whole plant or invertebrate; format: in vivo; details: for Test F control value class: class of control value
[8] = system: Colletotrichum orbiculare; test: Test Example H: Anthracnose on cucumber; details: for Test H control value: 6 to 10 days after inoculation; for Test H control value class: Anthracnose on cucumber (Sagami Hanjiro), 2.5 ml/pot, assessed 6 to 10 days after inoculation
[9] = Gray mold on tomato, control value class
[10] = Powdery mildew on barley, control value class
[11] = Alternaria sooty spot on cabbage, control value class
[12] = Blast on rice, control value class
[13] = Brown rust on wheat, control value class
[14] = Downy mildew on vine, 250 ppm spray
[15] = Late blight on tomato, control value class
[16] = Anthracnose on cucumber, 250 ppm spray
[17] = Alternaria sooty spot on cabbage
[18] = 250 ppm drug solution sprayed on test plant
[19] = 250 ppm drug solution sprayed (2.5 ml/pot), grape Neomuscat
[20] = 250 ppm drug solution sprayed (2.5 ml/pot), cucumber Sagami Hanjiro

| SMILES | Test B control value [1, 9] | Test D control value [2, 10] | Test C control value [3, 11] | Test A control value [4, 12] | Test E control value [5, 13] | Test G control value [6, 14] | Test F control value [7, 15] | Test H control value [8, 16] | Test B control value class ([1]; Gray mold on tomato) | Test D control value class ([2]; Powdery mildew on barley) | Test C control value class [3, 17] | Test A control value class ([4]; Blast on rice) | Test E control value class ([5]; Brown rust on wheat) | Test G control value class ([6]; 250 ppm spray) | Test F control value class ([7]; Late blight on tomato) | Test H control value class ([8]; 250 ppm spray) | also measured |
| --- | --- | --- | --- | --- | --- | --- | --- | --- | --- | --- | --- | --- | --- | --- | --- | --- | --- |
| CCn1c(-c2ccccc2F)c(CC(C)C)cc(Cl)c1=O [compound 255] | H (more than 50% control value) | H (more than 50% control value) | H (more than 50% control value) | H (more than 50% control value) | H (more than 50% control value) | L (50% or less control value) | L (50% or less control value) | H (more than 50% control value) | – | – | – | – | – | – | – | – | – |
| CCn1c(-c2c(F)cc(OC)cc2F)c(CN(C)C(C)C)cc(Cl)c1=O [compound 88] | – | – | – | – | – | – | – | – | H (more than 50% control value) | H (more than 50% control value) | H (more than 50% control value) | L (50% or less control value) | H (more than 50% control value) | L (50% or less control value) | L (50% or less control value) | L (50% or less control value) | – |
| CCCCCCCc1cc(Br)c(=O)n(CC)c1-c1ccc(F)cc1Cl [compound 269] | L (50% or less control value) | H (more than 50% control value) | L (50% or less control value) | L (50% or less control value) | L (50% or less control value) | L (50% or less control value) | L (50% or less control value) | L (50% or less control value) | – | – | – | – | – | – | – | – | – |
| CCn1c(-c2c(F)cc(OC)cc2F)c(C)cc(I)c1=O [compound 380] | – | – | – | – | – | – | – | – | – | – | – | – | – | – | – | – | Test B control value [1, 18]: H (more than 50% control value); Test D control value [2, 18]: H (more than 50% control value); Test C control value [3, 18]: H (more than 50% control value); Test A control value [4, 18]: H (more than 50% control value); Test E control value [5, 18]: H (more than 50% control value); Test G control value [6, 19]: L (50% or less control value); Test F control value [7, 18]: H (more than 50% control value); Test H control value [8, 20]: H (more than 50% control value) |
| COc1cc(F)c(-c2c(C(C)(OC)C(C)C)cc(Cl)c(=O)n2C)c(F)c1 (centres unmarked) [compound 488] | – | – | – | – | – | – | – | – | – | – | – | – | – | – | – | – | Test B control value [1, 18]: H (more than 50% control value); Test D control value [2, 18]: L (50% or less control value); Test C control value [3, 18]: H (more than 50% control value); Test A control value [4, 18]: H (more than 50% control value); Test E control value [5, 18]: H (more than 50% control value); Test G control value [6, 19]: L (50% or less control value); Test F control value [7, 18]: L (50% or less control value); Test H control value [8, 20]: H (more than 50% control value) |
| CCc1cc(Cl)c(=O)n(C)c1-c1ccc(F)cc1Cl [compound 316] | H (more than 50% control value) | L (50% or less control value) | H (more than 50% control value) | L (50% or less control value) | H (more than 50% control value) | H (more than 50% control value) | H (more than 50% control value) | H (more than 50% control value) | – | – | – | – | – | – | – | – | – |
| CCc1cc(Br)c(=O)n(C)c1-c1ccc(F)cc1C [compound 363] | H (more than 50% control value) | L (50% or less control value) | L (50% or less control value) | H (more than 50% control value) | H (more than 50% control value) | H (more than 50% control value) | L (50% or less control value) | L (50% or less control value) | – | – | – | – | – | – | – | – | – |
| CCCCCCCCCc1cc(Br)c(=O)n(CC)c1-c1ccc(F)cc1Cl [compound 275] | L (50% or less control value) | H (more than 50% control value) | L (50% or less control value) | L (50% or less control value) | L (50% or less control value) | L (50% or less control value) | L (50% or less control value) | L (50% or less control value) | – | – | – | – | – | – | – | – | – |
| CCCc1ccc(=O)n(CC)c1-c1c(F)cc(F)cc1F [compound 372] | H (more than 50% control value) | H (more than 50% control value) | H (more than 50% control value) | L (50% or less control value) | H (more than 50% control value) | H (more than 50% control value) | L (50% or less control value) | H (more than 50% control value) | – | – | – | – | – | – | – | – | – |
| CCCc1ccc(=O)n(C)c1-c1ccc(F)cc1Br [compound 410] | – | – | – | – | – | – | – | – | – | – | – | – | – | – | – | – | Test B control value [1, 18]: L (50% or less control value); Test D control value [2, 18]: H (more than 50% control value); Test C control value [3, 18]: L (50% or less control value); Test A control value [4, 18]: L (50% or less control value); Test E control value [5, 18]: H (more than 50% control value); Test G control value [6, 19]: L (50% or less control value); Test F control value [7, 18]: L (50% or less control value); Test H control value [8, 20]: L (50% or less control value) |
| CCn1c(-c2c(F)cc(F)cc2F)c(C(C)(C)C)ccc1=O [compound 67] | – | – | – | – | – | – | – | – | H (more than 50% control value) | H (more than 50% control value) | H (more than 50% control value) | L (50% or less control value) | H (more than 50% control value) | L (50% or less control value) | L (50% or less control value) | H (more than 50% control value) | – |
| CCCc1cc(Br)c(=O)n(CC)c1-c1ccc(F)cc1Cl [compound 192] | H (more than 50% control value) | H (more than 50% control value) | H (more than 50% control value) | H (more than 50% control value) | H (more than 50% control value) | L (50% or less control value) | L (50% or less control value) | H (more than 50% control value) | – | – | – | – | – | – | – | – | – |
| CCCOc1ccc(-c2c(CC(C)C)cc(Cl)c(=O)n2CC)c(F)c1 [compound 126] | – | – | – | – | – | – | – | – | H (more than 50% control value) | H (more than 50% control value) | H (more than 50% control value) | L (50% or less control value) | H (more than 50% control value) | H (more than 50% control value) | L (50% or less control value) | H (more than 50% control value) | – |
| CCn1c(-c2ccc(C#N)cc2)c(C(C)(F)C(C)C)cc(Cl)c1=O (centres unmarked) [compound 253] | H (more than 50% control value) | L (50% or less control value) | H (more than 50% control value) | L (50% or less control value) | L (50% or less control value) | L (50% or less control value) | L (50% or less control value) | L (50% or less control value) | – | – | – | – | – | – | – | – | – |
| CCn1c(-c2c(F)cc(F)cc2F)c(C(OC)C(C)(C)C)cc(Cl)c1=O (racemic) [compound 168] | – | – | – | – | – | – | – | – | H (more than 50% control value) | H (more than 50% control value) | H (more than 50% control value) | H (more than 50% control value) | H (more than 50% control value) | L (50% or less control value) | L (50% or less control value) | L (50% or less control value) | – |
| CCOc1cc(F)c(-c2c(C(C)(C)C)cc(Cl)c(=O)n2CC)c(F)c1 [compound 75] | – | – | – | – | – | – | – | – | H (more than 50% control value) | L (50% or less control value) | H (more than 50% control value) | L (50% or less control value) | H (more than 50% control value) | L (50% or less control value) | L (50% or less control value) | H (more than 50% control value) | – |
